Reference: ChEMBL document CHEMBL4387766, “Synthesis and biological evaluation of PSMA-targeting paclitaxel conjugates” (Bioorg Med Chem Lett, 2019)

Legend:
[1] = Cytotoxicity against human VA13 cells assessed as reduction in cell viability measured after 72 hrs by MTT assay; assay type: cell-based; details: WI-38 VA13 cells
LNCaP = test: Cytotoxicity against PSMA-positive human LNCAP cells assessed as reduction in cell viability measured after 72 hrs by MTT assay; assay type: functional
CWR22R [2] = test: Cytotoxicity against PSMA-positive human 22Rv1 cells assessed as reduction in cell viability measured after 72 hrs by MTT assay; assay type: functional; details: 22Rv1, 72 h
PC-3 = test: Cytotoxicity against PSMA-deficient human PC3 cells assessed as reduction in cell viability measured after 72 hrs by MTT assay; assay type: functional; details: PC-3, 72 h
[3] = Cytotoxicity against HEK293T cells assessed as reduction in cell viability measured after 72 hrs by MTT assay; assay type: cell-based, HEK-293T; details: human
[4] = Cytotoxicity against human MCF7 cells assessed as reduction in cell viability measured after 72 hrs by MTT assay; assay type: cell-based
[5] = Cytotoxicity against human A549 cells assessed as reduction in cell viability measured after 72 hrs by MTT assay; assay type: cell-based
[6] = Selectivity ratio of CC50 for human PSMA-deficient PC3 cells to CC50 for PSMA-positive human LNCAP cells; assay type: functional
[7] = Selectivity ratio of CC50 for human VA13 cells to CC50 for PSMA-positive human LNCAP cells
[8] = Selectivity ratio of CC50 for human PSMA-deficient PC3 cells to CC50 for PSMA-positive human 22Rv1 cells; assay type: functional
[9] = Selectivity ratio of CC50 for human VA13 cells to CC50 for PSMA-positive human 22Rv1 cells
CWR22R [10] = test: Antitumor activity against human 22Rv1 cells xenografted in nu/nu mouse assessed as tumor growth inhibition at 10 mg/kg, iv administered 3 times per week relative to control; assay type: functional; details: 22Rv1, iv, read-out: TGI
[11] = molecular target: Glutamate carboxypeptidase 2 (Homo sapiens, UniProt Q04609); test: Inhibition of PSMA in human LNCAP cells using NAAG as substrate measured after 2 hrs by amplex red reagent based fluorescence assay; assay type: cell-based
Chain of Glutamate carboxypeptidase 2 (Q04609 whole entry): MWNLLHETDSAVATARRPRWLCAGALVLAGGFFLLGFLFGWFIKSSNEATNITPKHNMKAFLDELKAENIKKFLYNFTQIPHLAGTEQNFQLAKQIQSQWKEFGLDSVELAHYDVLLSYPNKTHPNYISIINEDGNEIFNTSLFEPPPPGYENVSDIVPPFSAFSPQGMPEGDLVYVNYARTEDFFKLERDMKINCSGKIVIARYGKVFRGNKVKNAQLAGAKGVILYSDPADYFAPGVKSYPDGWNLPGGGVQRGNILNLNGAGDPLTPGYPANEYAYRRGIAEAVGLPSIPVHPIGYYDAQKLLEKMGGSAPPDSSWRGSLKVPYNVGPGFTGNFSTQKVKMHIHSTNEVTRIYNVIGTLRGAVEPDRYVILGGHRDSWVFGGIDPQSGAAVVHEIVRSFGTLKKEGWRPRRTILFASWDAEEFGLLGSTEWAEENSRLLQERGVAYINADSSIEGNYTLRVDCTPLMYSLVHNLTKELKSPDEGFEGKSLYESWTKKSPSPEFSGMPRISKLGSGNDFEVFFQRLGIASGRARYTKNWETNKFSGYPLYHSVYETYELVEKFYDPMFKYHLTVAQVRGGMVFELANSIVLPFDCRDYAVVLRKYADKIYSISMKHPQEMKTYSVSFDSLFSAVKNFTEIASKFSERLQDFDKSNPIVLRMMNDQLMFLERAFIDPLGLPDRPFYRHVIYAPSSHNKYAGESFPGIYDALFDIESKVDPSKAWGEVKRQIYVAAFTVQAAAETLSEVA

CWR22R [12] = test: Antitumor activity against human 22Rv1 cells xenografted in nu/nu mouse assessed as tumor growth inhibition at 6 mg/kg, iv administered 3 times per week relative to control; assay type: functional; details: 22Rv1, iv, read-out: TGI

Which results are given for `CC(=O)O[C@H]1C(=O)[C@@]2(C)[C@H]([C@H](OC(=O)c3ccccc3)[C@]3(O)C[C@H](OC(=O)[C@H](OC(=O)CCCc4cn(CCCCCC(=O)NCCCC[C@H](NC(=O)N[C@@H](CCC(=O)O)C(=O)O)C(=O)O)nn4)[C@@H](NC(=O)c4ccccc4)c4ccccc4)C(C)=C1C3(C)C)[C@]1(OC(C)=O)CO[C@@H]1C[C@@H]2O`?
CC50 at 72 h [1]: < 0.02 µM; CC50 (LNCaP): 0.058 µM; CC50 (CWR22R [2]): 0.12 µM; CC50 (PC-3): 0.095 µM; CC50 at 72 h [3]: < 0.02 µM; CC50 at 72 h [4]: < 0.02 µM; CC50 at 72 h [5]: < 0.02 µM; Selectivity ratio [6]: 0.85; Selectivity ratio [7]: 0.47; Selectivity ratio [8]: 1.13; Selectivity ratio [9]: 0.62; inhibition in vivo at 10 mg/kg (CWR22R [10]): 30%

With `NCCCC[C@H](NC(=O)N[C@@H](CCC(=O)O)C(=O)O)C(=O)O` as the compound, how does the IC50 [11] read?
Its IC50 is 1.47 µM.

What about the CC50 at 72 h [1] of the same compound?
The CC50 at 72 h was > 100 µM.

For `CC(=O)O[C@H]1C(=O)[C@@]2(C)[C@H]([C@H](OC(=O)c3ccccc3)[C@]3(O)C[C@H](OC(=O)[C@H](O)[C@@H](NC(=O)c4ccccc4)c4ccccc4)C(C)=C1C3(C)C)[C@]1(OC(C)=O)CO[C@@H]1C[C@@H]2O` [PACLITAXEL], which CC50 at 72 h [1] is on record?
Its CC50 at 72 h is < 0.02 µM.

What about the CC50 (LNCaP) of the same compound?
The CC50 was 0.0014 µM.

What about the CC50 (CWR22R [2]) of the same compound?
Its CC50 is 0.0039 µM.

What about the CC50 (PC-3) of the same compound?
The CC50 was 0.0027 µM.

What about the CC50 at 72 h [3] of the same compound?
Its CC50 at 72 h is < 0.02 µM.

And the CC50 at 72 h [4]?
Its CC50 at 72 h is < 0.02 µM.

And the CC50 at 72 h [5]?
Its CC50 at 72 h is < 0.02 µM.

What about the Selectivity ratio [6] of the same compound?
The Selectivity ratio was 1.

And the Selectivity ratio [7]?
The Selectivity ratio was 1.

And the Selectivity ratio [8]?
The Selectivity ratio was 1.

And the Selectivity ratio [9]?
Its Selectivity ratio is 1.

What about the inhibition in vivo at 6 mg/kg (CWR22R [12]) of the same compound?
The inhibition in vivo at 6 mg/kg was 30%.

With `[N-]=[N+]=NCCCCCC(=O)N(CCCC[C@H](NC(=O)N[C@@H](CCC(=O)O)C(=O)O)C(=O)O)Cc1ccc(Br)cc1` as the compound, how does the IC50 [11] read?
The IC50 was 0.17 µM.

Which results are given for `[N-]=[N+]=NCCCCCC(=O)N(CCCC[C@H](NC(=O)N[C@@H](CCC(=O)O)C(=O)O)C(=O)O)Cc1ccc(O)cc1`?
IC50 [11]: 0.14 µM; CC50 at 72 h [1]: 50.2 µM

Which IC50 [11] does the source give for `[N-]=[N+]=NCCCCCC(=O)N(CCCC[C@H](NC(=O)N[C@@H](CCC(=O)O)C(=O)O)C(=O)O)Cc1ccc(Cl)cc1` here?
Its IC50 is 0.11 µM.

What about the CC50 at 72 h [1] of the same compound?
The CC50 at 72 h was > 100 µM.

For `CC(=O)O[C@H]1C(=O)[C@@]2(C)[C@H]([C@H](OC(=O)c3ccccc3)[C@]3(O)C[C@H](OC(=O)[C@H](OC(=O)CCCc4cn(CCCCCC(=O)N(CCCC[C@H](NC(=O)N[C@@H](CCC(=O)O)C(=O)O)C(=O)O)Cc5ccc(O)cc5)nn4)[C@@H](NC(=O)c4ccccc4)c4ccccc4)C(C)=C1C3(C)C)[C@]1(OC(C)=O)CO[C@@H]1C[C@@H]2O`, which CC50 at 72 h [1] is on record?
The CC50 at 72 h was 0.065 µM.

What about the CC50 (LNCaP) of the same compound?
The CC50 was 0.043 µM.

What about the CC50 (CWR22R [2]) of the same compound?
Its CC50 is 0.061 µM.

What about the CC50 (PC-3) of the same compound?
Its CC50 is 0.09 µM.

And the CC50 at 72 h [3]?
The CC50 at 72 h was 0.023 µM.

What about the CC50 at 72 h [4] of the same compound?
Its CC50 at 72 h is 0.169 µM.

And the CC50 at 72 h [5]?
The CC50 at 72 h was 0.02 µM.

And the Selectivity ratio [6]?
Its Selectivity ratio is 1.04.

And the Selectivity ratio [7]?
The Selectivity ratio was 0.37.

And the Selectivity ratio [8]?
The Selectivity ratio was 2.19.

And the Selectivity ratio [9]?
The Selectivity ratio was 0.78.
